From ChEMBL document CHEMBL4602695, “Discovery and SARs of 5-Chloro-N4-phenyl-N2-(pyridin-2-yl)pyrimidine-2,4-diamine Derivatives as Oral Available and Dual CDK 6 and 9 Inhibitors with Potent Antitumor Activity” (J Med Chem, 2020)
Calls of active or inactive are those of the source. The calls are words filed in the database; no cut-off is given here.

Experiments:
[1] = molecular target: CDK9/Cyclin K (Homo sapiens) (UniProt P50750+O75909); settings: Sf9
[2] = Thermodynamic equilibrium solubility in water by HPLC-based shake flask method; type: physicochemical; settings: read-out: Therm_solubility
[3] = Thermodynamic equilibrium solubility in normal saline by HPLC-based shake flask method; type: physicochemical; settings: read-out: Therm_solubility
[4] = molecular target: CDK2/Cyclin A2 (Homo sapiens, UniProt P24941); design: species or system Sf9
[5] = molecular target: CDK6/cyclin D3 (Homo sapiens, UniProt Q00534); design: species or system Sf9
[6] = molecular target: CDK9/Cyclin K (Homo sapiens, UniProt P50750); assay: biochemical
[7] = tested on: MCF7; assay: Antiproliferative activity against human MCF7 cells assessed as inhibition of cell proliferation measured after 48 hrs by CCK8 assay; type: functional, cell-based; settings: for GI50: MCF7, 48 h
[8] = organism: Homo sapiens
[9] = tested on: MDA-MB-231; assay: Antiproliferative activity against human MDA-MB-231 cells assessed as inhibition of cell proliferation measured after 48 hrs by CCK8 assay; type: functional, cell-based; settings: for GI50: MDA-MB-231, 48 h
[10] = Cytotoxicity against human L02 cells assessed as inhibition of cell proliferation measured after 48 hrs by CCK8 assay; type: cell-based
[11] = tested on: Jurkat; assay: Antiproliferative activity against human Jurkat cells assessed as inhibition of cell proliferation measured after 48 hrs by CCK8 assay; type: functional, cell-based
[12] = tested on: MDA-MB-231; assay: Antitumor activity against human MDA-MB-231 cells xenografted in BALB/c nu/nu mouse assessed as tumor growth inhibition at 45 mg/kg, po administered once daily for 3 weeks and measured at 3 days interval during compound dosing; type: functional, organism-based
[13] = molecular target: CDK6/cyclin D3 (Homo sapiens) (UniProt P30281+Q00534); settings: Sf9

Chain of CDK6/cyclin D3 (P30281 whole entry): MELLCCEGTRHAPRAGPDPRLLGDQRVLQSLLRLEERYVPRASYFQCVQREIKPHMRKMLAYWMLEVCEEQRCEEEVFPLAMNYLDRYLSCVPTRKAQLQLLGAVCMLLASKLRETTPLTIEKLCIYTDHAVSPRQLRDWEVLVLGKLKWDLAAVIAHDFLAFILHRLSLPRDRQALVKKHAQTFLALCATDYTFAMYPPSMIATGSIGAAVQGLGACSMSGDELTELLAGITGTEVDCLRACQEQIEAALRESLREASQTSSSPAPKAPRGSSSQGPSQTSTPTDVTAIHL
Chain of CDK6/cyclin D3 (Q00534 whole entry): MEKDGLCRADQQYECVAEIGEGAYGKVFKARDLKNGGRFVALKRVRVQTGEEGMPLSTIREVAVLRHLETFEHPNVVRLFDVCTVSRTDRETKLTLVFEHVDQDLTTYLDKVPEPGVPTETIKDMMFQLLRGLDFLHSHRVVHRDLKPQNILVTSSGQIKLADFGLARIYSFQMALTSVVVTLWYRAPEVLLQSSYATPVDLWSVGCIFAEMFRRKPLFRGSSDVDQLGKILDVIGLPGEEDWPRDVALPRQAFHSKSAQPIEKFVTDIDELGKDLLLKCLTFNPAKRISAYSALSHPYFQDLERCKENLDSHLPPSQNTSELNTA
Chain of CDK9/Cyclin K (P50750 whole entry): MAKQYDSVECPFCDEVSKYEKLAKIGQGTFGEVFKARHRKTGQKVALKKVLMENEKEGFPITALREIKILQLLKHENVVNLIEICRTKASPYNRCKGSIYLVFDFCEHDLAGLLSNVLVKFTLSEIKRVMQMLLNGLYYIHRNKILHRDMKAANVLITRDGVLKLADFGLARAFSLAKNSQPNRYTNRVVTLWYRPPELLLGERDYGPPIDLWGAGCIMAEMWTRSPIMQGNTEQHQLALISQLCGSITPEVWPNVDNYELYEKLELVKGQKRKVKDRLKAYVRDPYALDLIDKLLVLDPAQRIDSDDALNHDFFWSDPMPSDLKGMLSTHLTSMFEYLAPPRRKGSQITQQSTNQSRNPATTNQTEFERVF
Chain of CDK9/Cyclin K (O75909 whole entry, further chain): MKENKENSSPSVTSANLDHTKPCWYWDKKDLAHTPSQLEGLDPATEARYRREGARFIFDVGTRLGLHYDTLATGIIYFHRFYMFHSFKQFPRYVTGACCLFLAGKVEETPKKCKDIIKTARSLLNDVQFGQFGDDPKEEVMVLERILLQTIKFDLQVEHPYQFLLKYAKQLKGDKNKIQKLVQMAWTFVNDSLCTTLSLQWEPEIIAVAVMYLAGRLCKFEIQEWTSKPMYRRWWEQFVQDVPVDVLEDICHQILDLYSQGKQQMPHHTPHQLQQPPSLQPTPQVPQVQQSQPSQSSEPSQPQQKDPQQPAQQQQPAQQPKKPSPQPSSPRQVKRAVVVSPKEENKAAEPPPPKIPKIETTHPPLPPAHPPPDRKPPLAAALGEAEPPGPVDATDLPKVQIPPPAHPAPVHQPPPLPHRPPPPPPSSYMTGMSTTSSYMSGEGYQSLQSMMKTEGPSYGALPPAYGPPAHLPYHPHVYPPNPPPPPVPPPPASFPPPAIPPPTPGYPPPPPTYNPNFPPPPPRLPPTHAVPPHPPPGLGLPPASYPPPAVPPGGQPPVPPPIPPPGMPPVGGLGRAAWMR

SMILES	inhibition [1]	solubility thermodynamic [2] [mg/mL]	solubility thermodynamic [3] [mg/mL]	IC50 [4] [µM]	IC50 [5] [µM]	IC50 [6] [µM]	GI50 [7] [µM]	Ratio IC50 [8]	GI50 [9] [µM]	GI50 at 48 h [10] [µM]	GI50 [11] [µM]	TGI [12]	inhibition [13]	inhibition [7]	inhibition [9]	inhibition [11]
CN1CCN(c2ccc(Nc3ncc(Cl)c(Nc4ccc(C(F)(F)F)cc4)n3)nc2)CC1	inactive	–	–	–	–	–	–	–	–	–	–	–	–	–	–	–
CC(=O)Nc1cccc(Nc2nc(Nc3ccc(N4CCN(C)CC4)cn3)ncc2Cl)c1.Cl	–	7.7	3.96	–	–	–	–	–	–	–	–	–	–	–	–	–
Cc1ccccc1Nc1nc(Nc2ccc(N3CCN(C)CC3)cn2)ncc1Cl	–	–	–	> 10	0.0157 to 0.016	0.152	5.21	10	7.47	5.98	8.08	–	–	–	–	–
CCN1CCN(Cc2ccc(Nc3ncc(F)c(-c4cc(F)c5nc(C)n(C(C)C)c5c4)n3)nc2)CC1 [ABEMACICLIB]	–	–	–	–	–	–	4.01	–	3.45	–	4.63	Active	–	–	–	–
Cc1ccc(Nc2nc(Nc3ccc(N4CCN(C)CC4)cn3)ncc2Cl)cc1	–	–	–	> 10	0.088	1.45	11.4	–	4.03	13.9	30.9	–	–	–	–	–
CN1CCN(c2ccc(Nc3ncc(Cl)c(Nc4cccc(F)c4)n3)nc2)CC1	inactive	–	–	–	–	–	–	–	–	–	–	–	–	–	–	–
CN1CCN(c2ccc(Nc3ncc(Cl)c(NCCc4ccccc4)n3)nc2)CC1	–	–	–	> 10	> 10	> 10	11.8	–	> 100	14.9	> 100	–	–	–	–	–
COc1cccc(Nc2nc(Nc3ccc(N4CCN(C)CC4)cn3)ncc2Cl)c1	–	–	–	0.701	0.103	6.2	7.54	–	8.51	3.47	15.8	–	–	–	–	–
Cc1ccccc1Nc1nc(NCCc2ccccc2)ncc1Cl	–	–	–	> 10	> 10	> 10	> 100	–	> 100	> 100	> 100	–	–	–	–	–
Cc1ccccc1Nc1nc(NCc2ccccc2)ncc1Cl	–	–	–	> 10	> 10	> 10	> 100	–	> 100	> 100	> 100	–	–	–	–	–
Cc1ccccc1Nc1nc(Nc2ccc(N3CCN(C)CC3)cc2)ncc1Cl	–	–	–	1.19	0.143	0.434	20.6	–	7.02	6.51	13.7	–	–	–	–	–
CN1CCN(c2ccc(Nc3ncc(Cl)c(Nc4ccccc4F)n3)nc2)CC1	inactive	–	–	–	–	–	–	–	–	–	–	–	inactive	Active	Active	Active
CN1CCN(c2ccc(Nc3ncc(Cl)c(Nc4cccc(OC(F)(F)F)c4)n3)nc2)CC1	inactive	–	–	–	–	–	–	–	–	–	–	–	–	–	–	–
Cc1ccc(CNc2nc(Nc3ccc(N4CCN(C)CC4)cn3)ncc2Cl)cc1	–	–	–	> 10	1.04	> 10	38.1	–	18.6	> 100	12.7	–	–	–	–	–
Cc1ccccc1Nc1nc(NC2CCCCC2)ncc1Cl	–	–	–	> 10	> 10	> 10	> 100	–	> 100	> 100	> 100	–	–	–	–	–
COC[C@@H](C)N[C@H]1CC[C@H](Nc2cc(-c3cccc(NCC4(C#N)CCOCC4)n3)c(Cl)cn2)CC1	–	–	–	3.46	> 10	0.002	43.4	–	< 0.16	28.3	< 0.16	–	–	–	–	–
CN1CCN(c2ccc(Nc3ncc(Cl)c(Nc4ccccc4)n3)nc2)CC1	–	–	–	> 10	0.113	9.85	51.8	–	37.4	7.99	> 100	–	–	–	–	–
Cc1ccccc1Nc1nc(Nc2ccc(N3CCCCC3)cn2)ncc1Cl	–	–	–	4.84	> 10	> 10	21.4	–	> 100	42.4	> 100	–	–	–	–	–
Cc1cc(C)c(Nc2nc(Nc3ccc(N4CCN(C)CC4)cn3)ncc2Cl)c(C)c1	–	–	–	> 10	8.87	> 10	9.47	–	21	20.5	7.6	–	–	–	–	–
Cc1ccccc1Nc1nc(NCCc2ccccn2)ncc1Cl	–	–	–	> 10	> 10	> 10	> 100	–	> 100	> 100	> 100	–	–	–	–	–
Cc1ccccc1Nc1nc(Nc2ccncc2)ncc1Cl	–	–	–	6.23	> 10	> 10	98.5	–	68.1	> 100	> 100	–	–	–	–	–

SMILES	inhibition [1]	solubility thermodynamic [2] [mg/mL]	solubility thermodynamic [3] [mg/mL]	IC50 [4] [µM]	IC50 [5] [µM]	IC50 [6] [µM]	GI50 [7] [µM]	Ratio IC50 [8]	GI50 [9] [µM]	GI50 at 48 h [10] [µM]	GI50 [11] [µM]	TGI [12]	inhibition [13]	inhibition [7]	inhibition [9]	inhibition [11]
CCc1ccc(Nc2nc(Nc3ccc(N4CCN(C)CC4)cn3)ncc2Cl)cc1	–	–	–	> 10	0.281	6.87	8.23	–	5.56	12.1	11.1	–	–	–	–	–
CN1CCN(c2ccc(Nc3ncc(Cl)c(Nc4ccc(F)c(C(F)(F)F)c4)n3)nc2)CC1	inactive	–	–	–	–	–	–	–	–	–	–	–	–	–	–	–
Cc1ccccc1Nc1nc(NCc2ccco2)ncc1Cl	–	–	–	> 10	> 10	> 10	> 100	–	> 100	> 100	> 100	–	–	–	–	–
Cc1ccccc1Nc1nc(Nc2ccc(N3CCOCC3)cc2)ncc1Cl	–	–	–	2.68	1.69	1.12	> 100	–	11.3	5.37	8.36	–	–	–	–	–
Cc1ccccc1Nc1nc(Nc2ccc(N3CCOCC3)cn2)ncc1Cl	–	–	–	> 10	0.046	0.051	6.63	–	5.98	1.99	14.1	–	–	–	–	–
CC(C)c1cccc(Nc2nc(Nc3ccc(N4CCN(C)CC4)cn3)ncc2Cl)c1	–	–	–	> 10	0.452	0.654	8.64	–	5.59	12.5	12.2	–	–	–	–	–
COc1ccc(CNc2nc(Nc3ccc(N4CCN(C)CC4)cn3)ncc2Cl)cc1	–	–	–	> 10	0.64	> 10	17.3	–	14.9	12.9	12.9	–	–	–	–	–
CN1CCN(c2ccc(Nc3ncc(Cl)c(Nc4ccc(OC(F)(F)F)cc4)n3)nc2)CC1	inactive	–	–	–	–	–	–	–	–	–	–	–	–	–	–	–
Cc1ccccc1Nc1nc(Nc2cccnc2)ncc1Cl	–	–	–	0.03	6.65	3.43	56.5	–	41.2	22.9	38.6	–	–	–	–	–
Cc1ccccc1Nc1nc(Nc2ccc(N3CCCN(C)CC3)cc2)ncc1Cl	–	–	–	1.59	0.536	0.88	4.29	–	6.39	1.24	11.3	–	–	–	–	–
Cc1ccccc1Nc1nc(Nc2ccccc2)ncc1Cl	–	–	–	> 10	> 10	> 10	> 100	–	> 100	> 100	> 100	–	–	–	–	–
Cc1ccccc1Nc1nc(NC2CC2)ncc1Cl	–	–	–	> 10	> 10	> 10	> 100	–	> 100	> 100	> 100	–	–	–	–	–
Cc1ccccc1Nc1nc(Nc2cc(Cl)ccn2)ncc1Cl	–	–	–	> 10	> 10	> 10	> 100	–	52.4	41.5	39.6	–	–	–	–	–
CN1CCN(c2ccc(Nc3ncc(Cl)c(NCc4ccc(F)cc4)n3)nc2)CC1	–	–	–	> 10	> 10	> 10	19.3	–	> 100	39.7	> 100	–	–	–	–	–
CN1CCN(c2ccc(Nc3ncc(Cl)c(NCc4ccco4)n3)nc2)CC1	–	–	–	> 10	0.279	> 10	21.3	–	11	45.7	> 100	–	–	–	–	–
CN1CCN(c2ccc(Nc3ncc(Cl)c(NCc4ccccc4)n3)nc2)CC1	–	–	–	> 10	> 10	> 10	17.3	–	24.8	20.3	> 100	–	–	–	–	–
Cc1ccccc1Nc1nc(Nc2ccc(N3CCN(C(=O)OC(C)(C)C)CC3)cc2)ncc1Cl	–	–	–	0.192	0.116	0.176	2.25	–	3.26	1.75	5.12	–	–	–	–	–
CN1CCN(c2ccc(Nc3ncc(Cl)c(Nc4ccc(F)cc4)n3)nc2)CC1	inactive	–	–	–	–	–	–	–	–	–	–	–	–	–	–	–
Cc1cccc(Nc2nc(Nc3ccc(N4CCN(C)CC4)cn3)ncc2Cl)c1	–	–	–	> 10	0.08	0.431	7.16	–	5.27	6.08	15.3	–	–	–	–	–
CCN1CCN(c2ccc(Nc3ncc(Cl)c(Nc4ccccc4C)n3)cc2)CC1	–	–	–	0.718	0.114	0.751	3.16	–	3.04	0.97	2.06	–	–	–	–	–
Cc1ccccc1Nc1nc(Nc2ccc(N3CCCCC3)cc2)ncc1Cl	–	–	–	3.69	> 10	> 10	> 100	–	19.9	5.69	> 100	–	–	–	–	–
